Measurements from patent publication US20190345505A1, “METHODS FOR REGULATING EXTRACTABLE PROANTHOCYANIDINS (PAS) IN PLANTS BY AFFECTING LEUCOANTHOCYANIDIN REDUCTASE (LAR)” (University of North Texas, priority 2016, published 2019).

Assays:
mutated LAR (LAR/K143G) = test: Conversion of 4β-(S-cysteinyl)-epicatechin to epicatechin by mutated LAR (negative control); assay type: biochemical, Medicago truncatula; settings: 40 μM substrate, 50 μM NADPH, 5 μg protein, 1 h, room temperature
Experimental: The full length LAR cDNA was cloned into pMal-c5x vector (New England Biolab) at the XmnI and BamHI sites. Mutations, which convert the lysine 143 codon to a glycine codon, were introduced into LAR cDNA by over-lapping PCR. The expression constructs were transformed into E. coli strain Rosetta™ 2(DE3)pLysS (EMD Millipore) competent cells. Transformed bacteria were grown in LB medium supplemented with 0.2% glucose to OD 600 of 0.5, and IPTG was added at 0.3 mM to induce protein expression. Bacteria were harvested after 4 h induction. LAR proteins were purified with amylose resin (NEB, E8021) following the manufacturer's protocol. Briefly, bacteria were lysed by sonication at 4° C. in extraction buffer (20 mM Tris pH 7.0, 200 mM NaCl, 1 mM DTT, 1 mM PMSF). […]
The above analyses indicate that the 21 minute fraction above contains cysteine and glucuronic acid conjugates of epicatechin, as well as a glucoside conjugate of epicatechin cysteine. Of these compounds, epicatechin cysteine was determined to be the best candidate for being a substrate for LAR. […] The ethyl acetate extract was dried under vacuum, dissolved in 50 μL water and analyzed by UPLC/MS.
Reactions without NADPH or LAR, with NADP^+, and with mutated LAR (LAR/K143G) were run in parallel as negative controls. Reactions were analyzed by UPLC/MS in negative mode. […] Epicatechin-cysteine content was quantified by EIC. […]

DMACA reactivity = assay type: physicochemical; settings: Five μL of 1 mM compound added to 200 mL 0.2% DMACA stain solution
Experimental: Seeds of the lar mutant accumulated more than twice the level of 4β-(S-cysteinyl)-epicatechin than wild-type plants (FIGS. 14B and 14C), whereas none was detected in the anr mutant, and MYB5 over-expressing hairy roots accumulated more than three times the level of epicatechin-cysteine found in MYB14 over-expressing hairy roots. […] DMACA reactivity of epicatechin-cysteine was also measured. Five μL of 1 mM epicatechin or epicatechin-cysteine were added to 200 mL 0.2% DMACA stain solution. OD values of absorbance at 640 nm were measured as: Epicatechin=OD 0.71, Epicatechin-cysteine=OD 0.34, and Blank=OD 0.05. Epicatechin-cysteine reacted with DMACA reagent to produce a less intense blue color than epicatechin, consistent with the weak DMACA staining of lar mutant seeds.

[1] = target: T1, LAR from Desmodium uncinatum (Desmodium uncinatum, UniProt Q84V83); settings: Tanner et al. 2003; read-out: reported Km of LAR towards leucocyanidin; cited from earlier work
T1 sequence (Q84V83 1-382): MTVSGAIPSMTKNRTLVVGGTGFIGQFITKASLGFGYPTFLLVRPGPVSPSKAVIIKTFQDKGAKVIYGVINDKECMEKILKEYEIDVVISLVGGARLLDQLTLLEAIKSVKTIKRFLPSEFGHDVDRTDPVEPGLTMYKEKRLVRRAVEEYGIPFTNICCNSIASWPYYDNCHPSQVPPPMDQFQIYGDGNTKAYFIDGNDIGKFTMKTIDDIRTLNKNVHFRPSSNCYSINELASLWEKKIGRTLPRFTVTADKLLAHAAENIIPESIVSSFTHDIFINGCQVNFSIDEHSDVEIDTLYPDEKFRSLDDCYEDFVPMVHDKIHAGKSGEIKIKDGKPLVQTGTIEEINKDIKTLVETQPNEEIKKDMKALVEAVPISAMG

| SMILES | activity of mutated LAR on substrate (epicatechin formation, UPLC/MS) (mutated LAR (LAR/K143G)) | OD values of absorbance at 640 nm (DMACA reactivity) (DMACA reactivity) | Km [1] |
| --- | --- | --- | --- |
| N[C@@H](CS[C@H]1c2c(O)cc(O)cc2O[C@H](c2ccc(O)c(O)c2)[C@@H]1O)C(=O)O [4β-(S-cysteinyl)-epicatechin] | no activity | 0.34 OD |  |
| Oc1cc(O)c2c(c1)OC(c1ccc(O)c(O)c1)C(O)C2O (stereo not drawn) [leucocyanidin] |  |  | 6 µM |
